From ChEMBL document CHEMBL3886406, “Substituted pyrrolo[2,3-b]pyridines as ITK and JAK inhibitors” (2015) come the findings set out here.

The structures appear in SMILES notation.

For this test, the target named is T1, Tyrosine-protein kinase ITK/TSK (Homo sapiens, UniProt Q08881).
T1 sequence (Q08881 whole entry): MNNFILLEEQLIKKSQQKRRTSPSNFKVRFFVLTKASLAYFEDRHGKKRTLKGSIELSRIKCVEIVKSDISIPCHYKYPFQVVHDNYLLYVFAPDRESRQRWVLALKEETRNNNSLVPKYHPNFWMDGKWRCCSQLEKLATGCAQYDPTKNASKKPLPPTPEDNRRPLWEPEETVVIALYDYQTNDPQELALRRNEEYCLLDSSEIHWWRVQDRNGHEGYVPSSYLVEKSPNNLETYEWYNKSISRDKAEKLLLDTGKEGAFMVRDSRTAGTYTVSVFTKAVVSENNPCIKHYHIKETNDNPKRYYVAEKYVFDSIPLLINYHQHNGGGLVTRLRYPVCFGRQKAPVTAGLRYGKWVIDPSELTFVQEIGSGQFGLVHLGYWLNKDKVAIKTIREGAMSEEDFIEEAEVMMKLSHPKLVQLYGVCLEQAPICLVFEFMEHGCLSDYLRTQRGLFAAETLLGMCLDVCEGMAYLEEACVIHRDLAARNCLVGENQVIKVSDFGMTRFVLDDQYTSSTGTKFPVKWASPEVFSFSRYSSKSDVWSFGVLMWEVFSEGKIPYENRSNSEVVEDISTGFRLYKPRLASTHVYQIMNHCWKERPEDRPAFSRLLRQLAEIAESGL
Briefly: Biochemical Inhibition Assay: 1H-pyrrolo[2,3-b]pyridine, 1H-pyrazolo[3,4-b]pyridine and 5H-pyrrolo[2,3-b]pyrazine series of compounds exhibited over >100 fold selective against Janus and TEC family of kinases except for the BMX and TXK it had activity of 30 and 45 nM respectively.
Regarding `C=CC(=O)Nc1cccc(-c2cnc3[nH]cc(C)c3c2)c1`, the IC50 (in general, the point on the concentration scale where inhibition reaches its midpoint) was “in the range around 35 nM”.

Turning to `C=CC(=O)Nc1cccc(-c2cnc3[nH]cc(-c4cccc(C)c4F)c3c2)c1`, the IC50 entry was “in the range around 72.4 nM”.

Consider `C=CC(=O)Nc1cccc(-c2cnc3[nH]cc(-c4cc5ccccc5[nH]4)c3n2)c1`, for which the IC50 result is “in the range around 35 nM”.

For the molecule `C=CC(=O)Nc1cccc(-c2cnc3[nH]cc(Cl)c3c2)c1`, the IC50 result is “in the range around 35 nM”.

Regarding `C=CC(=O)Nc1cccc(-c2cnc3[nH]cc(-c4cccc(S(=O)(=O)N(CC)CC)c4)c3c2)c1`, the IC50 entry is “in the range around 35 nM”.
